Source: paper PMC10141516 (Pharmaceutics, 2023)
Each block holds one compound with its values, some of them ahead of it.

Experiments:
[1] = Stability study of the APIs in pH buffers (total impurity by HPLC); format: physicochemical
Protocol: The column used was the Gemini C18 column (5.0 μm, 250 mm). Mobile phase A of the impurity study was prepared with KH2PO4 buffer (v/v, solution adjusted to pH 6.0 with 1 M KOH): acetonitrile: methanol = 85: 10: 5 (v/v/v), and mobile phase B was prepared with 90% acetonitrile. The mobile phase was filtered through a 0.4 μm polypropylene membrane filter and degassed via sonication. The diluted solution was prepared with KH2PO4 buffer (v/v, solution adjusted to pH 6.0 with 1 M KOH) and acetonitrile at a ratio of 7:3 (v/v). The wavelength, flow rate, and injection volume were set to 220 nm, 1.0 mL/min, and 20 μL, respectively. The column and sample thermostats were set to 35 °C and 5 °C, respectively. In the case of the impurity study, the analysis was performed by changing the composition of the mobile phase for 80 min using a gradient elution method for 80 min.
[…] […] We performed a calibration test, and the sample was diluted with a diluted solution and prepared at a concentration of 0.05–1 mg/mL.

[2] = cited from earlier work
[3] = pH 1.2 buffer, 20 ± 2 °C/60 ± 5% RH, 3 Days
[4] = pH 1.2 buffer, 20 ± 2 °C/60 ± 5% RH, 7 Days
[5] = pH 1.2 buffer, 40 ± 2 °C/75 ± 5% RH, 3 Days
[6] = pH 1.2 buffer, 40 ± 2 °C/75 ± 5% RH, 7 Days
[7] = pH 2.0 buffer, 20 ± 2 °C/60 ± 5% RH, 3 Days
[8] = pH 2.0 buffer, 20 ± 2 °C/60 ± 5% RH, 7 Days
[9] = pH 2.0 buffer, 40 ± 2 °C/75 ± 5% RH, 3 Days
[10] = pH 2.0 buffer, 40 ± 2 °C/75 ± 5% RH, 7 Days
[11] = pH 3.0 buffer, 20 ± 2 °C/60 ± 5% RH, 3 Days
[12] = pH 3.0 buffer, 20 ± 2 °C/60 ± 5% RH, 7 Days
[13] = pH 3.0 buffer, 40 ± 2 °C/75 ± 5% RH, 3 Days
[14] = pH 3.0 buffer, 40 ± 2 °C/75 ± 5% RH, 7 Days
[15] = pH 4.0 buffer, 20 ± 2 °C/60 ± 5% RH, 3 Days
[16] = pH 4.0 buffer, 20 ± 2 °C/60 ± 5% RH, 7 Days
[17] = pH 4.0 buffer, 40 ± 2 °C/75 ± 5% RH, 3 Days
[18] = pH 4.0 buffer, 40 ± 2 °C/75 ± 5% RH, 7 Days
[19] = pH 5.0 buffer, 20 ± 2 °C/60 ± 5% RH, 3 Days
[20] = pH 5.0 buffer, 20 ± 2 °C/60 ± 5% RH, 7 Days
[21] = pH 5.0 buffer, 40 ± 2 °C/75 ± 5% RH, 7 Days
[22] = pH 6.0 buffer, 20 ± 2 °C/60 ± 5% RH, 3 Days
[23] = pH 6.0 buffer, 20 ± 2 °C/60 ± 5% RH, 7 Days
[24] = pH 6.0 buffer, 40 ± 2 °C/75 ± 5% RH, 3 Days
[25] = pH 6.0 buffer, 40 ± 2 °C/75 ± 5% RH, 7 Days
[26] = pH 6.8 buffer, 20 ± 2 °C/60 ± 5% RH, 3 Days
[27] = pH 6.8 buffer, 20 ± 2 °C/60 ± 5% RH, 7 Days
[28] = pH 6.8 buffer, 40 ± 2 °C/75 ± 5% RH, 3 Days
[29] = pH 6.8 buffer, 40 ± 2 °C/75 ± 5% RH, 7 Days
[30] = pH 7.0 buffer, 20 ± 2 °C/60 ± 5% RH, 3 Days
[31] = pH 7.0 buffer, 20 ± 2 °C/60 ± 5% RH, 7 Days
[32] = pH 7.0 buffer, 40 ± 2 °C/75 ± 5% RH, 3 Days
[33] = pH 7.0 buffer, 40 ± 2 °C/75 ± 5% RH, 7 Days
[34] = pH 8.0 buffer, 20 ± 2 °C/60 ± 5% RH, 3 Days
[35] = pH 8.0 buffer, 20 ± 2 °C/60 ± 5% RH, 7 Days
[36] = pH 8.0 buffer, 40 ± 2 °C/75 ± 5% RH, 3 Days
[37] = pH 8.0 buffer, 40 ± 2 °C/75 ± 5% RH, 7 Days
[38] = pH 9.0 buffer, 20 ± 2 °C/60 ± 5% RH, 3 Days
[39] = pH 9.0 buffer, 20 ± 2 °C/60 ± 5% RH, 7 Days
[40] = pH 9.0 buffer, 40 ± 2 °C/75 ± 5% RH, 3 Days
[41] = pH 9.0 buffer, 40 ± 2 °C/75 ± 5% RH, 7 Days
[42] = pH 10.0 buffer, 20 ± 2 °C/60 ± 5% RH, 3 Days
[43] = pH 10.0 buffer, 20 ± 2 °C/60 ± 5% RH, 7 Days
[44] = pH 10.0 buffer, 40 ± 2 °C/75 ± 5% RH, 3 Days
[45] = pH 10.0 buffer, 40 ± 2 °C/75 ± 5% RH, 7 Days
[46] = pH 11.0 buffer, 20 ± 2 °C/60 ± 5% RH, 3 Days
[47] = pH 11.0 buffer, 20 ± 2 °C/60 ± 5% RH, 7 Days
[48] = pH 11.0 buffer, 40 ± 2 °C/75 ± 5% RH, 3 Days
[49] = pH 11.0 buffer, 40 ± 2 °C/75 ± 5% RH, 7 Days
[50] = pH 12.0 buffer, 20 ± 2 °C/60 ± 5% RH, 3 Days
[51] = pH 12.0 buffer, 20 ± 2 °C/60 ± 5% RH, 7 Days
[52] = pH 12.0 buffer, 40 ± 2 °C/75 ± 5% RH, 3 Days
[53] = pH 12.0 buffer, 40 ± 2 °C/75 ± 5% RH, 7 Days

Total Impurity [1, 3]: 0.08% | Total Impurity [1, 4]: 0.12% | Total Impurity [1, 5]: 0.11% | Total Impurity [1, 6]: 0.73% | Total Impurity ([1]; pH 1.2 buffer, Initial): 0.06% | Total Impurity [1, 7]: 0.00% | Total Impurity [1, 8]: 0.00% | Total Impurity [1, 9]: 0.02% | Total Impurity [1, 10]: 1.03% | Total Impurity ([1]; pH 2.0 buffer, Initial): 0.00% | Total Impurity [1, 11]: 1.30% | Total Impurity [1, 12]: 1.99% | Total Impurity [1, 13]: 7.29% | Total Impurity [1, 14]: 14.76% | Total Impurity ([1]; pH 3.0 buffer, Initial): 0.06% | Total Impurity [1, 15]: 0.00% | Total Impurity [1, 16]: 0.01% | Total Impurity [1, 17]: 0.04% | Total Impurity [1, 18]: 0.12% | Total Impurity ([1]; pH 4.0 buffer, Initial): 0.00% | Total Impurity [1, 19]: 0.16% | Total Impurity [1, 20]: 0.26% | Total Impurity [1, 21]: 4.48% | Total Impurity ([1]; pH 5.0 buffer, Initial): 0.00% | Total Impurity [1, 22]: 0.00% | Total Impurity [1, 23]: 0.04% | Total Impurity [1, 24]: 0.15% | Total Impurity [1, 25]: 0.28% | Total Impurity ([1]; pH 6.0 buffer, Initial): 0.00% | Total Impurity [1, 26]: 0.01% | Total Impurity [1, 27]: 0.01% | Total Impurity [1, 28]: 0.00% | Total Impurity [1, 29]: 0.12% | Total Impurity ([1]; pH 6.8 buffer, Initial): 0.00% | Total Impurity [1, 30]: 0.02% | Total Impurity [1, 31]: 0.04% | Total Impurity [1, 32]: 0.7% | Total Impurity [1, 33]: 0.69% | Total Impurity ([1]; pH 7.0 buffer, Initial): 0.00% | Total Impurity [1, 34]: 0.03% | Total Impurity [1, 35]: 0.05% | Total Impurity [1, 36]: 0.42% | Total Impurity [1, 37]: 1.06% | Total Impurity ([1]; pH 8.0 buffer, Initial): 0.00% | Total Impurity [1, 38]: 1.27% | Total Impurity [1, 39]: 1.47% | Total Impurity [1, 40]: 3.90% | Total Impurity [1, 41]: 6.31% | Total Impurity ([1]; pH 9.0 buffer, Initial): 1.02% | Total Impurity [1, 42]: 0.46% | Total Impurity [1, 43]: 0.66% | Total Impurity [1, 44]: 0.30% | Total Impurity [1, 45]: 4.78% | Total Impurity ([1]; pH 10.0 buffer, Initial): 0.15% | Total Impurity [1, 46]: 0.14% | Total Impurity [1, 47]: 0.22% | Total Impurity [1, 48]: 1.99% | Total Impurity [1, 49]: 3.69% | Total Impurity ([1]; pH 11.0 buffer, Initial): 0.00% | Total Impurity [1, 50]: 0.75% | Total Impurity [1, 51]: 1.05% | Total Impurity [1, 52]: 2.62% | Total Impurity [1, 53]: 4.11% | Total Impurity ([1]; pH 12.0 buffer, Initial): 0.00%
Compound: CCOc1ccc(Cc2cc([C@@H]3O[C@H](CO)[C@@H](O)[C@H](O)[C@H]3O)ccc2Cl)cc1 [Dapagliflozin, (1S)-1,5-Anhydro-1-C-[4-chloro-3-[(4-ethoxyphenyl)methyl]phenyl]-D-glucitol (S)-propane-1,2-diol (1:1) monohydrate]
BCS [2]: Class 3

Compound: N[C@@H](CC(=O)N1CCn2c(nnc2C(F)(F)F)C1)Cc1cc(F)c(F)cc1F.O.O=P(O)(O)O [Sitagliptin, (R)-3-Amino-1-(3-(trifluoromethyl)-5,6-dihydro-[1,2,4]triazolo[4,3-a]pyrazin-7(8H)-yl)-4-(2,4,5-trifluorophenyl)butan-1-one phosphate monohydrate]
Total Impurity [1, 3]: 0.01% | Total Impurity [1, 4]: 0.09% | Total Impurity [1, 5]: 0.02% | Total Impurity [1, 6]: 0.14% | Total Impurity ([1]; pH 1.2 buffer, Initial): 0.02% | Total Impurity [1, 7]: 0.03% | Total Impurity [1, 8]: 0.23% | Total Impurity [1, 9]: 0.08% | Total Impurity [1, 10]: 0.59% | Total Impurity ([1]; pH 2.0 buffer, Initial): 0.02% | Total Impurity [1, 11]: 0.08% | Total Impurity [1, 12]: 1.42% | Total Impurity [1, 13]: 0.37% | Total Impurity [1, 14]: 5.64% | Total Impurity ([1]; pH 3.0 buffer, Initial): 0.08% | Total Impurity [1, 15]: 0.00% | Total Impurity [1, 16]: 0.01% | Total Impurity [1, 17]: 0.00% | Total Impurity [1, 18]: 0.02% | Total Impurity ([1]; pH 4.0 buffer, Initial): 0.02% | Total Impurity [1, 19]: 0.00% | Total Impurity [1, 20]: 0.03% | Total Impurity ([1]; pH 5.0 buffer, 40 ± 2 °C/75 ± 5% RH, 3 Days): 0.00% | Total Impurity [1, 21]: 0.03% | Total Impurity ([1]; pH 5.0 buffer, Initial): 0.03% | Total Impurity [1, 22]: 0.00% | Total Impurity [1, 23]: 0.03% | Total Impurity [1, 24]: 0.01% | Total Impurity [1, 25]: 0.06% | Total Impurity ([1]; pH 6.0 buffer, Initial): 0.05% | Total Impurity [1, 26]: 0.01% | Total Impurity [1, 27]: 0.06% | Total Impurity [1, 28]: 0.00% | Total Impurity [1, 29]: 0.03% | Total Impurity ([1]; pH 6.8 buffer, Initial): 0.04% | Total Impurity [1, 30]: 0.00% | Total Impurity [1, 31]: 0.03% | Total Impurity [1, 32]: 0.00% | Total Impurity [1, 33]: 0.03% | Total Impurity ([1]; pH 7.0 buffer, Initial): 0.00% | Total Impurity [1, 34]: 0.01% | Total Impurity [1, 35]: 0.03% | Total Impurity [1, 36]: 0.00% | Total Impurity [1, 37]: 0.03% | Total Impurity ([1]; pH 8.0 buffer, Initial): 0.06% | Total Impurity [1, 38]: 0.00% | Total Impurity [1, 39]: 0.00% | Total Impurity [1, 40]: 0.00% | Total Impurity [1, 41]: 0.03% | Total Impurity ([1]; pH 9.0 buffer, Initial): 0.00% | Total Impurity [1, 42]: 0.00% | Total Impurity [1, 43]: 0.03% | Total Impurity [1, 44]: 0.00% | Total Impurity [1, 45]: 0.03% | Total Impurity ([1]; pH 10.0 buffer, Initial): 0.02% | Total Impurity [1, 46]: 0.00% | Total Impurity [1, 47]: 0.03% | Total Impurity [1, 48]: 0.00% | Total Impurity [1, 49]: 0.04% | Total Impurity ([1]; pH 11.0 buffer, Initial): 0.04% | Total Impurity [1, 50]: 0.00% | Total Impurity [1, 51]: 0.03% | Total Impurity [1, 52]: 0.00% | Total Impurity [1, 53]: 0.03% | Total Impurity ([1]; pH 12.0 buffer, Initial): 0.03% | biopharmaceutics classification system (BCS) [2]: Class 1
